PubChem BioAssay AID2768 (The Scripps Research Institute Molecular Screening Center, 2010)

Biological target: metallo-beta-lactamase IMP-1 (Pseudomonas aeruginosa) (UniProt Q79MP6)
Assay: IMP-1 metallo-beta-lactamase inhibitor potency, late-stage follow-up, biochemical, epi-absorbance, dose response (AID 2768)
Details: purified IMP-1, absorbance substrate hydrolysis

Chain of metallo-beta-lactamase IMP-1 (Pseudomonas aeruginosa) (Q79MP6 1-246): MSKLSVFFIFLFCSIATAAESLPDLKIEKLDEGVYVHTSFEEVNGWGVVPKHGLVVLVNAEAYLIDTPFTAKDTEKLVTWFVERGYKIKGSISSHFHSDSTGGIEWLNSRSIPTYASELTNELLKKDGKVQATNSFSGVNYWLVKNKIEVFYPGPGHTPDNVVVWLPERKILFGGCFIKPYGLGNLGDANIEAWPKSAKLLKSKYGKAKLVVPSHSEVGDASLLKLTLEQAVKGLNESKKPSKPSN

| SMILES | IC50 [nM] |
| --- | --- |
| O=C(O)c1cc[c]([Hg][Cl])cc1 | 8700 |
| CC(=O)Nc1cc[c]([Hg+])cc1 | 3740 |
| COc1cccc[c]1[Hg+] | 2330 |
| Cc1cc[c]([Hg+])cc1 | 1810 |
| O=C(O)c1ccc[c]([Hg+])c1 | 1330 |
| [Hg+][c]1ccccc1 | 1510 |
